13 compounds from ChEMBL document CHEMBL1177708, “Design, synthesis, and biological evaluation of a novel class of gamma-secretase modulators with PPARgamma activity” (J Med Chem, 2010) can be followed below.

Active and inactive are the calls of the source. No cut-off for these calls is given here.

The target of series [1] is T1, Peroxisome proliferator-activated receptor alpha (Homo sapiens) (UniProt Q07869).
T1 sequence (whole entry): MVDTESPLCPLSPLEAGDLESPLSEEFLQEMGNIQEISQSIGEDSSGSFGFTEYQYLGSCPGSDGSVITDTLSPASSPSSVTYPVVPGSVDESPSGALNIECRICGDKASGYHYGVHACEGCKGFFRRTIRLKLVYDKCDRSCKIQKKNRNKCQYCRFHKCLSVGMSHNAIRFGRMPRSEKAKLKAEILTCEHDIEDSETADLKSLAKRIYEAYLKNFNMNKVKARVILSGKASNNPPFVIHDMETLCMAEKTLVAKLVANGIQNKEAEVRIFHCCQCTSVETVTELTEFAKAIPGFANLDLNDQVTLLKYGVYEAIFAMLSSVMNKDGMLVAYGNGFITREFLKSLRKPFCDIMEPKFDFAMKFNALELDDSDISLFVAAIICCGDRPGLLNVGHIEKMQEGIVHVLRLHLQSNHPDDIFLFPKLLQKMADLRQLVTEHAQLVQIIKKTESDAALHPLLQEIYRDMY
Nature of the series: Agonist activity at human PPARalpha-LBD expressed in COS7 cells co-transfected with Gal4 at 10 uM by luciferase based transactivation assay. The series is classed as functional, cell-based. The settings on record: COS-7.

Series [2] deals with T2, Prostaglandin G/H synthase 2 (Homo sapiens) (UniProt P35354).
T2 sequence (whole entry): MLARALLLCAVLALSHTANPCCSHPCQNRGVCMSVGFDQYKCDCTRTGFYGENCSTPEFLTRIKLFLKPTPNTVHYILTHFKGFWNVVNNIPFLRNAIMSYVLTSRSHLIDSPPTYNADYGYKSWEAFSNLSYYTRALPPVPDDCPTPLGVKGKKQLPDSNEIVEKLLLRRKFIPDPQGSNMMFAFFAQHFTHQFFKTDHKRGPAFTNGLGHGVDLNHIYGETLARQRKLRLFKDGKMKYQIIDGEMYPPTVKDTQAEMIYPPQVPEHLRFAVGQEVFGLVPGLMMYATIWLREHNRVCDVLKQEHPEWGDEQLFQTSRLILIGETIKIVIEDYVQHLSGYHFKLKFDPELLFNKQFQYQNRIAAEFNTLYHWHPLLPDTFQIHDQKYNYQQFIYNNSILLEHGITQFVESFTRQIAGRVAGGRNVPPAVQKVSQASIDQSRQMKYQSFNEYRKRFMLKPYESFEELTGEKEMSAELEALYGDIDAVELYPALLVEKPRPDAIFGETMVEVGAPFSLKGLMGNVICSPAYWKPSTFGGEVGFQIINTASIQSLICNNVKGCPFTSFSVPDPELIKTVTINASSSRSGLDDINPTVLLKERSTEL
Kind of series: Inhibition of human recombinant COX2 assessed as residual activity at 10 uM after 5 mins.

In series [3] the target is T3, Prostaglandin G/H synthase 1 (Ovis aries) (UniProt P05979).
T3 sequence (whole entry): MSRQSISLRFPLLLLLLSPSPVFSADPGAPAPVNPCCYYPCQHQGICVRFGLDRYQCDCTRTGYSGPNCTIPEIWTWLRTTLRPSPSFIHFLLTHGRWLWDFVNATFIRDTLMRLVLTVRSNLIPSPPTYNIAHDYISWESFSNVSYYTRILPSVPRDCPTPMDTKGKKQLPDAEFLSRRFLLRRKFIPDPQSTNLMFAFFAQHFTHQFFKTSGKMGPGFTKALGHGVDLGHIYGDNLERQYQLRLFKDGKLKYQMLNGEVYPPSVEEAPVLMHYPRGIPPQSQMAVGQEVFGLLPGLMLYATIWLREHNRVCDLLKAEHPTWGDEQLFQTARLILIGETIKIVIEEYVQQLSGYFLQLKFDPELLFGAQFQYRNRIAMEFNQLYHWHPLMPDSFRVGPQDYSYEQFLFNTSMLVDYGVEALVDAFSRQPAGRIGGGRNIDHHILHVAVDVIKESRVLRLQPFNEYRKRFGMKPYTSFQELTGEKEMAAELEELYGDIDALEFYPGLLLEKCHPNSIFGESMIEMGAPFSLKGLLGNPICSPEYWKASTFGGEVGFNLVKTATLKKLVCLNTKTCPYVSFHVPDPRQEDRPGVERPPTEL
Kind of series: Inhibition of ovine COX1 assessed as residual activity at 10 uM after 5 mins.

Series [4] has as its target T4, Peroxisome proliferator-activated receptor gamma (Homo sapiens, UniProt P37231).
T4 sequence (P37231 whole entry): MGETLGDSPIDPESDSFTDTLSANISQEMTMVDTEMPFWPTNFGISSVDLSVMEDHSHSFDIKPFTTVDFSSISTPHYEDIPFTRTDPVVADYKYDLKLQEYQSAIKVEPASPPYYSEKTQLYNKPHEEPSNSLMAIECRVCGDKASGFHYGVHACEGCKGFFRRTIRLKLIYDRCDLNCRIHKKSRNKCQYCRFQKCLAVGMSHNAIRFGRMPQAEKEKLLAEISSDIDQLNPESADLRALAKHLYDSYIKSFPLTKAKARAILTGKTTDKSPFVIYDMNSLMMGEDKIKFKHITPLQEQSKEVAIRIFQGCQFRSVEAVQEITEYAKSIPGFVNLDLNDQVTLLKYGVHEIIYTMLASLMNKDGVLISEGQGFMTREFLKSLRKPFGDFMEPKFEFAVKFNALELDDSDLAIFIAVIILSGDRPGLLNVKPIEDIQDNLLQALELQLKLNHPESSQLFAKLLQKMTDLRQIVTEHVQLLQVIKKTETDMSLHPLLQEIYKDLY
Nature of the series: Agonist activity at human PPARgamma-LBD expressed in COS7 cells co-transfected with Gal4 by luciferase based transactivation assay. In kind it is functional, cell-based, COS-7.

Series [5] can be described thus: Modulation of gamma-secretase-mediated cleavage of human APP expressed in CHO cells with human presenilin-1 assessed as activation of amyloid beta38 production after 24 hrs by ELISA. The series is classed as cell-based. On the technique in general: ELISA stands for enzyme-linked immunosorbent assay.
The target of series [6] is T5, Peroxisome proliferator-activated receptor gamma (Homo sapiens) (UniProt P37231).
T5 sequence (whole entry): T4 sequence (P37231 whole entry)
Nature of the series: Agonist activity at human PPARgamma-LBD expressed in COS7 cells co-transfected with Gal4 by luciferase based transactivation assay relative to pioglitazone. The settings on record: COS-7. The series is classed as functional, cell-based.

Series [7] deals with T6, Peroxisome proliferator-activated receptor delta (Homo sapiens) (UniProt Q03181).
T6 sequence (whole entry): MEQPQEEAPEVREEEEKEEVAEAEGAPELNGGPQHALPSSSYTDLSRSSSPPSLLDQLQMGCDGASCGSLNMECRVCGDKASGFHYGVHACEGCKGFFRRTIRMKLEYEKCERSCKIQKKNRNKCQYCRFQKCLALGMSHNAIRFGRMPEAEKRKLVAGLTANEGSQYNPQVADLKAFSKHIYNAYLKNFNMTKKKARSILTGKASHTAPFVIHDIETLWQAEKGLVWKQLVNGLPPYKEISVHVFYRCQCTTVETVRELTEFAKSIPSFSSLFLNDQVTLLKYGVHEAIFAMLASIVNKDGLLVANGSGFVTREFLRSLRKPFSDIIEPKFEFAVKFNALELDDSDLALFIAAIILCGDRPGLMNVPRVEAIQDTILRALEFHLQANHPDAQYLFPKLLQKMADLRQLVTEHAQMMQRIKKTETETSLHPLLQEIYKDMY
Kind of series: Agonist activity at human PPARdelta-LBD expressed in COS7 cells co-transfected with Gal4 at 10 uM by luciferase based transactivation assay. The following applies: COS-7. The series is classed as functional, cell-based.

Another series is described as follows: cells. The settings on record: CHO, 24 h.
In a further series the test system is CHO. Nature of the series: Cytotoxicity against CHO cells at 60 uM after 24 hrs by Alamar blue assay. In kind it is cell-based, Cricetulus griseus. The settings on record: chinese hamster. On the technique in general: Alamar Blue is a resazurin reagent that responds to reducing activity.

Description for cells: Modulation of gamma-secretase-mediated cleavage of human APP expressed in CHO cells with human presenilin-1 assessed as inhibition of amyloid beta42 production after 24 hrs by ELISA

`CCCCCCC(Sc1nc(OCCc2ccccc2)cc(OCCc2ccccc2)n1)C(=O)O` (configuration not stated): the result in series [1] and in series [7] was inactive. The Activity is 63.8% in series [2], 61.8% in series [3] and “Non-toxic” in the series on CHO. Besides, the EC50 (in general, the concentration giving half of the maximal effect) in series [4] stood at 8.8 µM; in series [5] it was 24.2 µM. In [6], this compound registered an Emax of 59%. Also, in “cells”, the half-maximal inhibitory concentration (IC50) (as a rule, the concentration that inhibits the measured activity by half) turned out to be 30.4 µM.

Take `CCCCC(Sc1nc(OCCc2ccc(OC(F)(F)F)cc2)cc(OCCc2ccc(OC(F)(F)F)cc2)n1)C(=O)O` (configuration not stated): the outcome in [1] and in [7] was inactive. The Activity in series [2] was 75.8%; in [3] it was 73%; with CHO it was “Non-toxic”. Further, the results for the EC50 in series [4] and in series [5] were 10.3 µM and 5.5 µM, respectively. The Emax in series [6] was found to be 115%. For the same compound, the IC50 in the series “cells” is 8.6 µM.

Turning to `CCCCC(Sc1nc(OCCC(C)C)cc(OCCC(C)C)n1)C(=O)O` (configuration not stated), the result in [1] and in series [7] was inactive. The Activity in series [2] is 80.5%; in [3] it was 72.4%; in the series on CHO, “Non-toxic”. The EC50 in [4] worked out at 11 µM; in [5], 10.9 µM. This compound also registered an Emax in [6] of 69%. Also, the IC50 in “cells” is 28.2 µM.

Take `CCC(Sc1nc(OCCc2ccccc2)cc(OCCc2ccccc2)n1)C(=O)O` (configuration not stated): the outcome in [1] and in [7] was inactive. In addition, the Activity is 56.9% in series [2], 84.6% in [3] and “Non-toxic” in the series on CHO. The EC50 in series [4] amounted to 6.1 µM; in series [5], 31.1 µM. Also, in series [6], the Emax was determined as 57%. Also, in the series “cells”, the IC50 came out at 41.6 µM.

As for `CCCCC(Sc1nc(OCCc2ccc(C)cc2)cc(OCCc2ccc(C)cc2)n1)C(=O)O` (configuration not stated), the result in [1] and in series [7] was inactive. Besides, the Activity in series [2] is 93.3%; in series [3], 57.2%; in the series with CHO, “Non-toxic”. In addition, the 50% effective concentration (EC50) is 7.5 µM in series [4] and 6.4 µM in [5]. The same compound gave an Emax in [6] of 63%. In the series “cells”, this compound gave an IC50 of 13 µM.

In “cells”, `COc1ccc2c(c1)c(CC(=O)O)c(C)n2C(=O)c1ccc(Cl)cc1` [INDOMETHACIN] had an IC50 of 25 µM.

Regarding `CCCCC(Sc1nc(OCCC2CC2)cc(OCCC2CC2)n1)C(=O)O` (configuration not stated), the result in [1] and in [7] was inactive. In addition, the results for the Activity (in series [2]; in [3]; with CHO) were 87.9%, 97.7% and “Non-toxic”, respectively. Further, the half-maximal effective concentration (EC50) in series [4] stood at 4.3 µM; in series [5], 24 µM. In [6], this compound gave an Emax of 79%. This compound also registered an IC50 in the series “cells” of more than 40 µM.

`CCCCC(Sc1nc(OCCCc2ccccc2)cc(OCCCc2ccccc2)n1)C(=O)O` (configuration not stated): the outcome in series [1] and in series [7] was inactive. The values for the Activity (in [2]; in series [3]; in the series with CHO) were 51.9%, 78.8% and “Non-toxic”, respectively. Besides, the EC50 was found to be 8.9 µM in [4] and 16.4 µM in series [5]. In series [6], this compound returned an Emax of 71%. This compound also displayed an IC50 in the series “cells” of 30.9 µM.

Consider `CCCC[C@H](Sc1nc(OCCc2ccccc2)cc(OCCc2ccccc2)n1)C(=O)O`, for which the outcome in series [1] and in series [7] was inactive. Further, the Activity in series [2] was 92.8%; in [3], 83.5%; in the series on CHO it was “Non-toxic”. The results for the EC50 in series [4] and in series [5] were 10.4 µM and 13.5 µM, respectively. The same compound gave an Emax in [6] of 62%. In the series “cells”, this compound gave a concentration for half-maximal inhibition (IC50) of 32.6 µM.

Take `CCCCC(Sc1nc(OCCC2CCCC2)cc(OCCC2CCCC2)n1)C(=O)O` (configuration not stated): the outcome in series [1] and in series [7] was inactive. For the same compound, the Activity in series [2] was 84.7%; in series [3] it was 68.2%; in the series with CHO, “Non-toxic”. Moreover, in series [5], the EC50 is 9 µM. Further, the Emax in series [6] turned out to be 127%. The compound also displayed an IC50 in the series “cells” of 17.2 µM.

For `CCCCC(Sc1nc(OCCCCc2ccccc2)cc(OCCCCc2ccccc2)n1)C(=O)O` (configuration not stated), the outcome in [1] and in [7] was inactive. Besides, the Activity in series [2] is 53.9%; in series [3], 78.8%; with CHO, “Non-toxic”. Also, the values for the concentration giving a half-maximal response (EC50) in [4] and in series [5] were 10 µM and 16.4 µM, respectively. The compound further came in with an Emax in series [6] of 55%. In “cells”, this compound gave a concentration for half-maximal inhibition (IC50) of 22.9 µM.

Regarding `O=C(O)CSc1nc(OCCc2ccccc2)cc(OCCc2ccccc2)n1`, the outcome in [1] and in [7] was inactive. For the same compound, the Activity in series [2] was 91.7%; in [3], 91.8%; in the series with CHO, “Non-toxic”. Also, the EC50 in [4] is 3.7 µM; in series [5], more than 40 µM. Further, the Emax in series [6] is 111%. The same compound showed a 50% inhibitory concentration (IC50) in “cells” of more than 40 µM.

Consider `CCCCC(Sc1nc(OCCc2ccc(C#N)cc2)cc(OCCc2ccc(C#N)cc2)n1)C(=O)O` (configuration not stated), for which the outcome in series [1] and in series [7] was inactive. In addition, the Activity in series [2] is 82.6%; in series [3] it was 88.8%; in the series on CHO, “Non-toxic”. The EC50 in series [4] came to 7 µM. Moreover, the Emax in [6] was determined as 65%. Moreover, the 50% inhibitory concentration (IC50) in “cells” was more than 40 µM.
